Source: ChEMBL document CHEMBL2424514, “Prediction of glucagon receptor antagonist activities of some substituted imidazoles using combined radial basis function neural network and density functional theory” (Med Chem Res, 2013)

Target: Glucagon receptor (Homo sapiens, UniProt P47871)
Experiment: Inhibition of human glucagon receptor expressed in CHO cell membranes by radioligand displacement assay
Type: cell-based

Sequence of Glucagon receptor (P47871 whole entry): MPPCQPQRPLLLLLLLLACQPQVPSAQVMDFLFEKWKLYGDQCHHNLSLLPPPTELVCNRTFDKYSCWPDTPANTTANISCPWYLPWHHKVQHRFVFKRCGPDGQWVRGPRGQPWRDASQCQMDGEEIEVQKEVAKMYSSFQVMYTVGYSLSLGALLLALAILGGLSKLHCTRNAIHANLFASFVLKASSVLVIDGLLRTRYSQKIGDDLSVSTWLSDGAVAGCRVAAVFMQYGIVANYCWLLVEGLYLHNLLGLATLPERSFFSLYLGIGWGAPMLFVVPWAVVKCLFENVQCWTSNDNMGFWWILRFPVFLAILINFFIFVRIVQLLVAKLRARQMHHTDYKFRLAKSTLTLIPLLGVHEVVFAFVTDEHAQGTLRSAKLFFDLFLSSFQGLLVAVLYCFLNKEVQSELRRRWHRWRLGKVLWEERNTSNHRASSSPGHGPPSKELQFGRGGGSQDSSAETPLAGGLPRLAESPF

| SMILES | IC50 |
| --- | --- |
| Clc1ccc(-c2nc(-c3cccc(-c4ccccc4)c3)c(-c3ccncc3)[nH]2)cc1 | 590 nM |
| Brc1ccc(-c2nc(-c3ccccc3)c(-c3ccccc3)[nH]2)cc1 | 2200 nM |
| Fc1ccc(-c2[nH]c(-c3cccc(Br)c3)nc2-c2ccncc2)cc1 | 150 nM |
| Fc1ccc(-c2[nH]c(-c3ccc(I)cc3)nc2-c2ccncc2)cc1 | 100 nM |
| Clc1ccc(-c2nc(-c3ccncc3)c(-c3ccc(Cl)cc3)[nH]2)cc1 | 23 nM |
| Fc1ccc(-c2nc(-c3ccc(Cl)cc3)[nH]c2-c2ccncc2)cc1 | 80.2 nM |
| Cc1ccc(-c2nc(-c3ccc(F)cc3)c(-c3ccncc3)[nH]2)cc1 | 90.2 nM |
| Fc1ccc(-c2[nH]c(-c3ccc(-c4ccccc4)cc3)nc2-c2ccncc2)cc1 | 301 nM |
| CSc1ccc(-c2nc(-c3ccc(F)cc3)c(-c3ccncc3)n2C)cc1 | 521 nM |
| Oc1ccc(-c2[nH]c(-c3ccc(Br)cc3)nc2-c2ccccc2)cc1 | 100 nM |
| Fc1ccc(-c2[nH]c(CCc3ccccc3)nc2-c2ccncc2)cc1 | 120 nM |
| Clc1ccc(-c2nc(-c3ccncc3)c(-c3ccccc3Oc3ccccc3)[nH]2)cc1 | 150 nM |
| Fc1ccc(-c2nc(-c3ccc(Br)cc3)[nH]c2-c2ccncc2)cc1 | 160 nM |
| Cc1cnccc1-c1nc(-c2ccc(Cl)cc2)[nH]c1-c1ccc(F)cc1 | 20 nM |
| Cc1cc(-c2[nH]c(-c3ccc(Cl)cc3)nc2-c2ccc(F)cc2)ccn1 | 50 nM |
| Clc1ccc(-c2nc(-c3ccncc3)c(-c3ccc(Oc4ccccc4)cc3)[nH]2)cc1 | 250 nM |
| Fc1ccc(-c2[nH]c(-c3cccc4ccccc34)nc2-c2ccncc2)cc1 | 340 nM |
| Brc1ccc(-c2nc(-c3ccncc3)c(-c3ccccc3)[nH]2)cc1 | 40.1 nM |
| Clc1ccc(-c2nc(-c3ccc(I)cc3)c(-c3ccncc3)[nH]2)cc1 | 140 nM |
| Clc1ccc(-c2nc(-c3ccc(-c4ccccc4)cc3)c(-c3ccncc3)[nH]2)cc1 | 3300 nM |
| Fc1ccc(-c2[nH]c(-c3ccc(Br)s3)nc2-c2ccncc2)cc1 | 110 nM |
| CCCOc1ccc(-c2[nH]c(-c3ccc(Cl)cc3)nc2-c2ccncc2)c(OCCC)c1 | 2400 nM |
| Clc1ccc(-c2nc(-c3ccncc3)c(-c3cccc(Oc4ccccc4)c3)[nH]2)cc1 | 220 nM |
| Fc1ccc(-c2[nH]c(-c3ccc(Br)o3)nc2-c2ccncc2)cc1 | 190 nM |
| CC(C)c1ccc(-c2nc(-c3ccc(F)cc3)c(-c3ccncc3)[nH]2)cc1 | 281 nM |
| CSc1ccc(-c2nc(-c3ccc(F)cc3)c(-c3ccncc3)o2)cc1 | 931 nM |
| N#Cc1ccc(-c2nc(-c3ccncc3)c(-c3ccc(F)cc3)[nH]2)cc1 | 210 nM |
| CSc1ccc(-c2nc(-c3ccncc3)c(-c3ccc(F)cc3)n2C)cc1 | 861 nM |
| Fc1ccc(-c2[nH]c(-c3ccccc3Br)nc2-c2ccncc2)cc1 | 90.2 nM |
